Laboratory results: US12187727B2, “Methods for antagonizing a melanocortin 4 receptor” (Pfizer Inc., priority 2020, dated 2025)
Read-outs that look alike come from different tables or passages of the source.

Target: human Melanocortin-4 receptor (MC4R) (Homo sapiens (Human), UniProt P32245)
Assay: Functional in vitro MC4R antagonist potency assay (cAMP HTRF in CHO cells)
Assay type: cell-based
Experimental: Example BB. Functional In Vitro MC4R Antagonist Potency Assay
The functional in vitro antagonist potency for test compounds was determined by monitoring intracellular cyclic adenosine monophosphate (cAMP) levels in Chinese hamster ovary (CHO—) cells stably expressing the human Melanocortin-4 receptor (MC4R). Following agonist activation, human MC4R associates with the G-protein complex causing the Gα subunit to exchange bound GDP for GTP, followed by dissociation of the Ga-GTP complex. The activated Gα subunit can couple to downstream effectors to regulate the levels of second messengers or cAMP within the cell. Thereby, determination of intracellular cAMP levels allows for pharmacological characterization. Intracellular cAMP levels are quantitated using a homogenous assay utilizing the Homogeneous Time-Resolved Fluorescence (HTRF) technology from CisBio. The method is a competitive immunoassay between native cAMP produced by cells and the cAMP labelled with the acceptor dye, d2. The two entities then compete for binding to a monoclonal anti-cAMP antibody labeled with cryptate. The specific signal is inversely proportional to the concentration of cAMP in the cells.
Test compounds were solubilized to 30 mM in 100% dimethyl sulfoxide (DMSO) and stored. […] The final compound concentration range in the assay was 400 nM to […], with a final DMSO concentration of 0.1%.
(95% O2: 5% CO2) overnight, with micro-clime lids (Labcyte, Cat No. LLS-0310). […] Cells were incubated with compound for 30 minutes at 37° C. (95% O2: 5% CO2) before addition of 5 μL EC80, agonist stimulation (200 nM α-melanocyte stimulating hormone, aMSH, Bachem) and another 30-minute incubation at 37° C. (95% O2: 5% CO2). Intracellular cAMP levels were quantified as per Cisbio's protocol (5 uL of D2 and then 5 uL Cryptate, incubated for 1-2 hours at room temperature).
Data expressed as nM cAMP were then normalized to control wells using Activity Base (IDBS). Zero percent effect (ZPE) was defined as nM of cAMP generated from ECK, agonist stimulation (200 nM aMSH). In the absence of an antagonist control compound, one hundred percent effect (HPE) was defined as nM of cAMP generated from assay buffer/vehicle only.

[1] = read-out: Kb (nM) Antagonist geometric mean
[2] = human MC4R in CHO cells, cAMP HTRF, 200 nM aMSH challenge, Kb from IC50 by Leff-Dougall equation, geometric mean, read-out: Kb (nM) Antagonist geometric

human Melanocortin-4 receptor (MC4R), sequence (P32245 whole entry): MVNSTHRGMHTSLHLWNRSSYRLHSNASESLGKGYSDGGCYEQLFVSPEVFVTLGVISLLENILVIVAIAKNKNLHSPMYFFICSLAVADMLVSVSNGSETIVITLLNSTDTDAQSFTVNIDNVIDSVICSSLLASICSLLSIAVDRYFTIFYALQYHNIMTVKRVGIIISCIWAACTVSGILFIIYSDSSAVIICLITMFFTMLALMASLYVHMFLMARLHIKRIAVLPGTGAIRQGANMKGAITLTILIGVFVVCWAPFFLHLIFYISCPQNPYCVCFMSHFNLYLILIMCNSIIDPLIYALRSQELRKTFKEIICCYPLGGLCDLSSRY

Compound | Kb [1] | Kb [2] | other results
COc1cc([C@@H](C)C(=O)N2CCC3(CCc4cc(-c5coc(C)n5)c(C)nc4N3)C2)c(F)cn1 (mixture of isomers) [Example 33, (2R)-2-(5-fluoro-2-methoxypyridin-4-yl)-1-[7-methyl-6-(2-methyl-1,3-oxazol-4-yl)-3,4-dihydro-1H-spiro[1,8-naphthyridine-2,3′-pyrrolidin]-1′-yl]propan-1-one] | 3.2 nM | – | –
COc1cc([C@@H](C)C(=O)N2CC[C@@]3(CCc4ccc(C)nc4N3)C2)nc(C)n1 (single isomer, unassigned) [Example 23, 2-(6-methoxy-2-methylpyrimidin-4-yl)-1-(7-methyl-3,4-dihydro-1H-spiro[1,8-naphthyridine-2,3′-pyrrolidin]-1′-yl)propan-1-one] | 24 nM | – | –
COc1ccc([C@@H](C)C(=O)N2CC[C@@]3(CCc4cc(-c5ncccn5)c(C)nc4N3)C2)cc1F (single isomer, unassigned) [Example 42] | 9.4 nM | – | –
COc1cc([C@](C)(F)C(=O)N2CC[C@@]3(CCc4cc(-c5ncccn5)c(C)nc4N3)C2)ccn1 (single isomer, unassigned) [Example 46] | 7.2 nM | – | –
Cc1nc2c(cc1-c1ncccn1)CC[C@@]1(CCN(C(=O)[C@H](C)c3ccc(F)c(F)c3)C1)N2 (single isomer, unassigned) [Example 50] | 2.9 nM | – | –
Cc1nc2c(cc1-c1nnn(C)n1)CC[C@@]1(CCN(C(=O)Cc3ccc(C(F)(F)F)cc3)C1)N2 (single isomer, unassigned) [Example 65, 1-[7-methyl-6-(2-methyl-2H-tetrazol-5-yl)-3,4-dihydro-1H-spiro[1,8-naphthyridine-2,3′-pyrrolidin]-1′-yl]-2-[4-(trifluoromethyl)phenyl]ethan-1-one] | 10 nM | – | –
COc1cc([C@@H](C)C(=O)N2CC[C@@]3(CCc4cc(-c5ncccn5)c(C)nc4N3)C2)cc(OC)n1 (single isomer, unassigned) [Example 83] | 0.54 nM | – | –
COc1cc(OC)cc([C@@H](C)C(=O)N2CC[C@@]3(CCc4cc(-c5cnn(C)c5)c(C)nc4N3)C2)c1 (single isomer, unassigned) [Example 90] | 0.4 nM | – | –
COc1cc([C@@H](C)C(=O)N2CC[C@@]3(CCc4cc(-c5nc(C(F)(F)F)n(C)n5)c(C)nc4N3)C2)c(F)cn1 (single isomer, unassigned) [Example 92] | 0.16 nM | – | –
COc1cc([C@@H](C)C(=O)N2CC[C@@]3(CCc4cc(-c5nc(C(F)(F)F)n(C)n5)c(C)nc4N3)C2)c(Cl)cn1 (single isomer, unassigned) [Example 94] | 0.12 nM | – | –
COc1cc([C@@H](C)C(=O)N2CC[C@@]3(CCc4ccc(C)nc4N3)C2)c(F)cn1 (single isomer, unassigned) [Example 98] | 19 nM | – | –
COc1cc([C@@H](C)C(=O)N2CC[C@@]3(CCc4ccc(C)nc4N3)C2)c(Cl)cn1 (single isomer, unassigned) [Example 100] | 5.5 nM | – | –
COc1cc([C@@H](C)C(=O)N2CC[C@@]3(CCc4cc(Cl)c(C)nc4N3)C2)c(F)cn1 (single isomer, unassigned) [Example 102] | – | > 92 nM | –
COc1cc([C@@H](C)C(=O)N2CC[C@@]3(CCc4cc(-c5cnn(C)c5)c(C)nc4N3)C2)c(Cl)cn1 (single isomer, unassigned) [Example 104] | – | 0.06 nM | –
Cc1nc2c(cc1-c1nnn(C)n1)CC[C@@]1(CCN(C(=O)[C@H](C)c3ccc(C(F)(F)F)cc3)C1)N2 (single isomer, unassigned) [Example 109] | – | 5.8 nM | –
COc1cc([C@@H](C)C(=O)N2CCC3(CCc4cc(-c5nc(OC)n(C)n5)c(C)nc4N3)C2)c(F)cn1 (single isomer, unassigned) [Example 112] | – | 2 nM | –

Compound | Kb [1] | Kb [2] | other results
COc1cc(C(C)C(=O)N2CC[C@@]3(CCc4cc(-c5nc(C(F)F)n(C)n5)c(C)nc4N3)C2)nc(C)n1 (single isomer, unassigned) [Example 123] | – | 0.5 nM | –
COc1cc(C(C)C(=O)N2CC[C@@]3(CCc4cc(-c5nnn(C)n5)c(C)nc4N3)C2)ccn1 (single isomer, unassigned) [Example 125] | – | 5.1 nM | –
COc1cc(C(C)C(=O)N2CC[C@@]3(CCc4cc(-c5nnn(C)n5)c(C)nc4N3)C2)nc(C(F)F)n1 (single isomer, unassigned) [Example 127] | – | 1.1 nM | –
COc1ncc(F)c(C(C)C(=O)N2CC[C@@]3(CCc4cc(-c5nnn(C)n5)c(C)nc4N3)C2)n1 (single isomer, unassigned) [Example 134] | – | > 97 nM | –
COc1cc(C(C)C(=O)N2CC[C@@]3(CCc4cc(-c5ncccn5)c(C)nc4N3)C2)c(C)cn1 (single isomer, unassigned) [Example 136] | – | 0.16 nM | –
COc1cc([C@](C)(F)C(=O)N2CC[C@@]3(CCc4cc(-c5ncccn5)c(C)nc4N3)C2)c(F)cn1 (single isomer, unassigned) [Example 148] | – | 19 nM | –
Cc1nc2c(cc1-c1ncccn1)CC[C@@]1(CCN(C(=O)[C@H](C)c3ccc(F)cc3F)C1)N2 (single isomer, unassigned) [Example 190] | – | 5.9 nM | –
Cc1nc2c(cc1-c1cnn(C)c1)CC[C@@]1(CCN(C(=O)Cc3ccc(F)cc3)C1)N2 (stereo in doubt) [Example 89, 2-(4-fluorophenyl)-1-[7-methyl-6-(1-methyl-1H-pyrazol-4-yl)-3,4-dihydro-1H-spiro[1,8-naphthyridine-2,3′-pyrrolidin]-1′-yl]ethan-1-one] | > 40 nM | – | –
COc1cc([C@@H](C)C(=O)N2CC[C@@]3(CCc4cc(-c5nnn(C)n5)c(C)nc4N3)C2)c(F)cn1 [Example 13, (2R)-2-(5-Fluoro-2-methoxypyridin-4-yl)-1-[(2S)-7-methyl-6-(2-methyl-2H-tetrazol-5-yl)-3,4-dihydro-1H-spiro[1,8-naphthyridine-2,3′-pyrrolidin]-1′-yl]propan-1-one] | – | – | Kb: 0.16 nM
[2H]c1cc([2H])nc(-c2cc3c(nc2C)N[C@@]2(CC3)CCN(C(=O)[C@H](C)c3cc(OC)ncc3F)C2)n1 [Example 18, (2R)-2-(5-Fluoro-2-methoxypyridin-4-yl)-1-{(2S)-7-methyl-6-[(4,6-^2H2)pyrimidin-2-yl]-3,4-dihydro-1H-spiro[1,8-naphthyridine-2,3′-pyrrolidin]-1′-yl}propan-1-one] | – | – | Kb: 0.55 nM
COc1cc([C@@H](C)C(=O)N2CC[C@@]3(CCc4cc(-c5ncc(C(F)F)cn5)c(C)nc4N3)C2)c(F)cn1 [Example 21, (2R)-1-{(2S)-6-[5-(difluoromethyl)pyrimidin-2-yl]-7-methyl-3,4-dihydro-1H-spiro[1,8-naphthyridine-2,3′-pyrrolidin]-1′-yl}-2-(5-fluoro-2-methoxypyridin-4-yl)propan-1-one] | 20 nM | – | –
COc1cc([C@@H](C)C(=O)N2CC[C@@]3(CCc4cc(-c5cn(C(F)(F)F)c(C)n5)c(C)nc4N3)C2)c(F)cn1 [Example 27, (2R)-2-(5-fluoro-2-methoxypyridin-4-yl)-1-{(2S)-7-methyl-6-[2-methyl-1-(trifluoromethyl)-1H-imidazol-4-yl]-3,4-dihydro-1H-spiro[1,8-naphthyridine-2,3′-pyrrolidin]-1′-yl}propan-1-one] | 4.6 nM | – | –
COc1cc([C@H](C)C(=O)N2CC[C@@]3(CCc4cc(-c5ncccn5)c(C)nc4N3)C2)c(F)cn1 [Example 28, (2S)-2-(5-fluoro-2-methoxypyridin-4-yl)-1-[(2S)-7-methyl-6-(pyrimidin-2-yl)-3,4-dihydro-1H-spiro[1,8-naphthyridine-2,3′-pyrrolidin]-1′-yl]propan-1-one] | > 97 nM | – | –
COc1cc([C@@H](C)C(=O)N2CC[C@]3(CCc4cc(-c5ncccn5)c(C)nc4N3)C2)c(F)cn1 [Example 29, (2R)-2-(5-fluoro-2-methoxypyridin-4-yl)-1-[(2R)-7-methyl-6-(pyrimidin-2-yl)-3,4-dihydro-1H-spiro[1,8-naphthyridine-2,3′-pyrrolidin]-1′-yl]propan-1-one] | 12 nM | – | –
COc1cc([C@H](C)C(=O)N2CC[C@]3(CCc4cc(-c5ncccn5)c(C)nc4N3)C2)c(F)cn1 [Example 30, (2S)-2-(5-fluoro-2-methoxypyridin-4-yl)-1-[(2R)-7-methyl-6-(pyrimidin-2-yl)-3,4-dihydro-1H-spiro[1,8-naphthyridine-2,3′-pyrrolidin]-1′-yl]propan-1-one] | > 54 nM | – | –
Cc1nc2c(cc1-c1ncccn1)CC[C@@]1(CCN(C(=O)Cc3cc(F)c(F)c(F)c3)C1)N2 [Example 54, 1-[(2S)-7-methyl-6-(pyrimidin-2-yl)-3,4-dihydro-1H-spiro[1,8-naphthyridine-2,3′-pyrrolidin]-1′-yl]-2-(3,4,5-trifluorophenyl)ethan-1-one] | 4.1 nM | – | –
